The values below come from PMC10778758, “Dithioethanol (DTE)-Conjugated Deoxyribose Cyclic Dinucleotide Prodrugs (DTE-dCDNs) as STING Agonist” (International Journal of Molecular Sciences, 2023).

The nature of this data set: In vitro serum stability assay in 20% fetal bovine serum. Format: in vitro ADME. The note with it: bovine, 20% fetal bovine serum, pH 7.4, 20% FBS, 37 °C, read-out: T1/2 (half-life period) (converted). As to the method:
In vitro serum stability assay. Each compound (100 μM) was incubated at 37 °C in the reaction buffer including 20% fetal bovine serum (FBS, GIBCO, Thermo Fisher Scientific, Waltham, MA, USA), 10 mM PBS (pH 7.4), and 1 mM MgCl2. At various times, aliquots of the reaction mixture were collected and stopped by adding 50 μL MeCN and diluted with 50 μL water. The reaction mixture was then centrifuged at 10,000 rpm for 5 min, leaving 100 μL supernatant for the HPLC assay. An amount of 10 μL of each aliquot was injected directly into HPLC (Agilent 1260 Infinity HPLC equipped with a UV detector; column Agilent ZORABX SB-C18 5 μm [4.6 × 150 mm; detection at 254 nm; column temperature 25 °C] for analysis. Amounts of 10 mM TEAA buffer (solvent A) and MeCN (solvent B) were used as the mobile phase with a flow rate of 1 mL/min. The gradient was set as the following: 0–2 min: 98% A/2% B; 2–6 min: 98% A/2% B to 100% B; 6–10 min: 100% B; 10–13 min: 100% B to 98% A/2% B; 13–15 min: 98% A/2% B. The % remaining of the test compounds after incubation in the serum was then calculated.
Figure 4 Parent dCDN of DTE-dCDN prodrug 9 retained a high serum stability. The serum stability analysis of (a) prodrug 9, (b) 3′,3′-c-di-dAMP, (c) 2′,3′-cGAMP and (d) ADU-S100 were determined in 20% FBS. Each compound (100 μM) was incubated in 20% FBS at 37 °C. At various times (0, 2, 4, 8, 12, 24, 48, 72 h), aliquots of the reaction mixture were analyzed with HPLC at 254 nm. The % remaining of test compounds after incubation in serum was calculated.

With `Nc1ncnc2c1ncn2C1CC2OP(=O)(OCCSSc3ccccn3)OCC3OC(n4cnc5c(N)ncnc54)CC3OP(=O)(OCCSSc3ccccn3)OCC2O1` (stereo not shown) [prodrug 9], the half-life at 100 μM is 28 h.
